The source of these data is patent US7255796B2, “Method of preventing hydrogen sulfide odor generation in an aqueous medium” (General Electric Company, priority 2004, dated 2007).

SMILES strings stand for the structures. Marks after values point to notes of the source that are not given here.

Series [1] has as its system microorganisms (PetriFilm Count). Description: Serum bottle test: PetriFilm count after treatment (toxicity). Type of series: cell-based. The procedure: (§1) The test protocol was as follows: 100 mL serum bottles were filled with synthetic nutrient medium, then stoppered, capped, and autoclaved, and allowed to cool to at least 35C. Using a 1 mL syringe with needle, the treatment was added at desired dosages to prepared serum bottles (triplicates of each dosage). No treatment was added for baseline controls. At least 6 baseline serum bottles were used. Using a 1 mL syringe with needle, 0.1 mL of prepared culture was added to each serum bottle.
(§2) Next, a 10^10 cells/ml concentration of the sulfate reducers was prepared (using autoclaved synthetic nutrient medium) inside an anaerobic chamber. Using a 1 ml syringe with needle, 0.1 ml of the prepared sulfate reducers culture was added to each serum bottle. The bottles were then incubated at the desired temperature.
(§3) The baseline dissolved sulfide levels were then measured to determine if the samples were ready for efficacy analysis. Using a 30 mL syringe with needle, 30 mL of sample was removed from each serum bottle. About 25 mL of the sample was added to a 30 mL bottle containing 0.125 mL zinc acetate solution, followed by adding 1 mL of 1N NaOH. The sulfide in the fixed sample was then measured. The remaining 5 mL of sample in the syringe was used for pH determination. Separate field studies were also conducted.

Series [2] in a line: Serum bottle test: medium pH after treatment. In kind it is physicochemical. The procedure:
as §1, §2, §3

The subject of series [3] is sulfate reducing bacteria (SRB). Nature of the series: Serum bottle test: SRB growth after treatment (toxicity). In kind it is cell-based, sulfate reducers. The procedure:
as §1, §2, §3

Series [4] has as its system real municipal wastewater. Nature of the series: H2S inhibition using real municipal wastewater, Field Study 2.
For series [5], the system named is real municipal wastewater. Description: H2S inhibition using real municipal wastewater, Field Study 1.
[6] abbreviates: scavenger dosage 200 ppm active.
The mark [7] stands for this setting: Field Study 2, scavenger dosage 10 ppm active.
Setting [8] is: Field Study 1, scavenger dosage 10 ppm active.

For `c1ncncn1` [Triazine, triazine], the “PetriFilm Count after Treatment” value in series [1] (scavenger dosage 8 ppm active) is on record as 5.5 × 10^8. Besides, the “Medium pH after Treatment” value in series [2] (scavenger dosage 8 ppm active) came to 6.5. Also, in series [3] (scavenger dosage 8 ppm active), the “SRB Growth after Treatment” value is reported as 10^8.
Regarding `O=CCCCC=O` [Glutaraldehyde, reference compound], in series [1] (setting [6]), the “PetriFilm Count after Treatment” value is reported as 0. Moreover, the “Medium pH after Treatment” value in series [2] (setting [6]) was determined as 7.5. For the same compound, in series [3] (setting [6]), the “SRB Growth after Treatment” value is on record as 0.
Turning to `O=CC=O` [Glyoxal, glyoxal], in series [1] (scavenger dosage 8 ppm active), the “PetriFilm Count after Treatment” value is given as 8.3 × 10^8. Besides, the “Head Space H2S” value is listed as 47 ppm in series [4] (Field Study 2, scavenger dosage 0.5 ppm active); 12 ppm in series [4] (Field Study 2, scavenger dosage 4.0 ppm active); 0.1 ppm in series [4] (Field Study 2, scavenger dosage 6.0 ppm active); 0.1 ppm in series [4] (Field Study 2, scavenger dosage 8.0 ppm active); 5.0* ppm in series [4] (setting [7]); 27 ppm in series [5] (Field Study 1, scavenger dosage 0.3 ppm active). Besides, the “Head Space H2S” value in series [5] (Field Study 1, scavenger dosage 3.8 ppm active) is reported as 8 ppm; in series [5] (Field Study 1, scavenger dosage 6.0 ppm active), 7 ppm; in series [5] (Field Study 1, scavenger dosage 8 ppm active), 2 ppm; in series [5] (setting [8]) it was 0.5 ppm. In addition, in series [2] (scavenger dosage 8 ppm active), the “Medium pH after Treatment” value amounted to 6.5. For the same compound, the “SRB Growth after Treatment” value in series [3] (scavenger dosage 8 ppm active) is listed as 10^8.
Turning to `O=[N+]([O-])[O-].O=[N+]([O-])[O-].[Mg+2]` [Mg(NO3)2, magnesium nitrate, reference compound], the “Head Space H2S” value in series [4] (setting [7]) turned out to be 47 ppm; in series [5] (setting [8]), 27 ppm.
